Experimental data taken from patent publication US8329843B2, “Method for producing amide compound” (Mitsui Chemicals, Inc., priority 2005, dated 2012).

Tested on: microbial cell containing a nitrile hydratase
Type: biochemical
Conditions: benzene 26 ppm or acrolein 2 ppm in raw material acrylonitrile; more wet microbial cell needed
Description: There were prepared a 1-liter glass flask equipped with a stirrer as a first reactor and a Teflon (trademark) tube with an inside diameter of 5 mm and a length of 20 m as a second reactor. To the first reactor was charged 400 g of water in advance.
In accordance with the method described in Japanese Patent Application Laid-Open Publication No. 2001-340091, a microbial cell containing a nitrile hydratase was cultured and the resulting wet microbial cell was suspended in a 0.3 mM-NaOH aqueous solution. The suspension and the acrylonitrile b were continuously fed into the first reactor under stirring at a rate of 49 g/h and 31 g/h, respectively. In addition, the reaction solution was continuously taken out from the first reactor at a rate of 80 g/h so that the liquid level of the first reactor was maintained constant. The liquid taken out was continuously fed into the second reactor at a rate of 80 g/h and the reaction was further performed in the second reactor. […]
The amount of the wet microbial cell added to the 0.3 mM-NaOH aqueous solution was adjusted so that the conversion rate to acrylamide at the outlet of the first reactor was 90% or higher and the concentration of acrylonitrile at the outlet of the second reactor was at the detection limit or less (100 ppm or less). The conversion rate to acrylamide was determined by the analysis of HPLC. […]

Compound | inhibition of reaction by impurity in acrylonitrile
C=CC=O [acrolein] | inhibition of reaction by acrolein was confirmed
c1ccccc1 [benzene] | inhibition of reaction by benzene was confirmed
